System: KB 3.1 (DSMZ ACC 158) cells
Assay: Cell proliferation assay under folate free conditions
Assay type: cell-based
Conditions: RPMI-medium without folic acid + 10% dialyzed fetal calf serum; MTT assay after 1, 2 and 5 days (day of the value not given); read-out: IC50 [nM] KB 3.1 (Folate-Ratjadone Conjugates)
Method: KB 3.1 (DSMZ ACC 158) cells were cultivated at 37° C. and 10% C002 in RMPI-medium without folic acid (Gibco) with 10% fetal calf serum (Gibco). 120 μL of suspended cells (100.000/mL) were seeded in wells of 96-well plates and after 24 h at 37° C. and 10% CO2 the medium was removed, the cells were washed with PBS and RPMI-medium without folic acid (Gibco)+10% dialyzed fetal calf serum (Sigma) were added to the cells, before after additional 24 h at 37° C. and 10% C002 60 μL of serial dilutions of the test compound were given to cells. After 1, 2 and 5 days of incubation growth inhibition (IC50) was determined using an MTT assay.^[64]

Going from `C/C=C/[C@@H]1O[C@H]([C@@H](/C=C/C=C(\C)C[C@@H](C)/C=C(C)\C=C\[C@H]2CC=CC(=O)O2)NC(=O)OCc2ccc(NC(=O)[C@H](CCCNC(N)=O)NC(=O)[C@@H](NC(=O)OC[C@@H]3[C@@H]4CCc5nnn(CCC[C@H](NC(=O)[C@@H](CC(=O)O)NC(=O)[C@@H](CC(=O)O)NC(=O)[C@H](CCCn6nnc7c6CC[C@H]6[C@@H](CC7)[C@H]6COC(=O)N[C@H](C(=O)N[C@@H](CCCNC(N)=O)C(=O)Nc6ccc(COC(=O)N[C@H](/C=C/C=C(\C)C[C@@H](C)/C=C(C)\C=C\[C@H]7CC=CC(=O)O7)[C@@H]7C[C@@H](O)[C@H](C)[C@H](/C=C/C)O7)cc6)C(C)C)NC(=O)[C@@H](CC(=O)O)NC(=O)[C@@H](CC(=O)O)NC(=O)[C@H](CCCn6nnc7c6CC[C@H]6[C@@H](CC7)[C@H]6COC(=O)N[C@H](C(=O)N[C@@H](CCCNC(N)=O)C(=O)Nc6ccc(COC(=O)N[C@H](/C=C/C=C(\C)C[C@@H](C)/C=C(C)\C=C\[C@H]7CC=CC(=O)O7)[C@@H]7C[C@@H](O)[C@H](C)[C@H](/C=C/C)O7)cc6)C(C)C)NC(=O)[C@@H](CC(=O)O)NC(=O)[C@@H](CC(=O)O)NC(=O)CC[C@H](NC(=O)c6ccc(NCc7cnc8nc(N)nc(O)c8n7)cc6)C(=O)O)C(=O)O)c5CC[C@@H]43)C(C)C)cc2)C[C@@H](O)[C@@H]1C` [FA-11-(Val-Cit-PABA-16R-Aminoratjadone)3] to `C/C=C/[C@@H]1O[C@H](C(/C=C/C=C(\C)C[C@@H](C)/C=C\C=C(/C)[C@H]2CC=CC(=O)O2)NC(=O)OCc2ccc(NC(=O)[C@H](CCCNC(N)=O)NC(=O)[C@@H](NC(=O)OC[C@@H]3[C@@H]4CCc5nnn(-c6ccc(C(=O)NCCCC[C@H](NC(=O)[C@H](CC(=O)O)NC(=O)[C@H](CC(=O)O)NC(=O)[C@H](CCCCNC(=O)c7ccc(-n8nnc9c8CC[C@H]8[C@@H](CC9)[C@H]8COC(=O)N[C@H](C(=O)N[C@@H](CCCNC(N)=O)C(=O)Nc8ccc(COC(=O)NC(/C=C/C=C(\C)C[C@@H](C)/C=C\C=C(/C)[C@H]9CC=CC(=O)O9)[C@@H]9C[C@@H](O)[C@H](C)[C@H](/C=C/C)O9)cc8)C(C)C)cc7)NC(=O)[C@@H](CC(=O)O)NC(=O)[C@@H](CC(=O)O)NC(=O)CC[C@H](NC(=O)c7ccc(NCc8cnc9nc(N)nc(O)c9n8)cc7)C(=O)O)C(=O)O)cc6)c5CC[C@@H]43)C(C)C)cc2)C[C@@H](O)[C@@H]1C` (stereo partly drawn) [FA-4-(Val-Cit-PABA-16R-Aminoratjadone)2], the IC50 rises from 45 nM to 148 nM (3.3-fold). The first is the more potent here.

`C/C=C/[C@@H]1O[C@H]([C@@H](/C=C/C=C(\C)C[C@@H](C)/C=C(C)\C=C\[C@H]2CC=CC(=O)O2)NC(=O)OCc2ccc(NC(=O)[C@H](CCCNC(N)=O)NC(=O)[C@@H](NC(=O)OC[C@@H]3[C@@H]4CCc5nnn(CCC[C@H](NC(=O)CC[C@H](NC(=O)c6ccc(NCc7cnc8nc(N)nc(O)c8n7)cc6)C(=O)O)C(=O)N[C@H](CCCCN)C(=O)O)c5CC[C@@H]43)C(C)C)cc2)C[C@@H](O)[C@@H]1C` [FA-9-Val-Cit-PABA-16R-Aminoratjadone] and `C/C=C/[C@@H]1O[C@H]([C@@H](/C=C/C=C(\C)C[C@@H](C)/C=C(C)\C=C\[C@H]2CC=CC(=O)O2)NC(=O)OCc2ccc(NC(=O)[C@H](CCCNC(N)=O)NC(=O)[C@@H](NC(=O)OC[C@@H]3[C@@H]4CCc5nnn(-c6ccc(C(=O)NCCCC[C@H](NC(=O)CC[C@H](NC(=O)c7ccc(NCc8cnc9nc(N)nc(O)c9n8)cc7)C(=O)O)C(=O)N[C@H](CCCCN)C(=O)O)cc6)c5CC[C@@H]43)C(C)C)cc2)C[C@@H](O)[C@@H]1C` [FA-8-Val-Cit-PABA-16R-Aminoratjadone] are within 1.5-fold of each other in IC50: 50.9 nM for the first, 39.9 nM for the second.

First: C/C=C/[C@@H]1O[C@H]([C@@H](/C=C/C=C(\C)C[C@@H](C)/C=C(C)\C=C\[C@H]2CC=CC(=O)O2)NC(=O)OCCc2cn(CCC[C@H](NC(=O)[C@@H](CC(=O)O)NC(=O)[C@@H](CC(=O)O)NC(=O)[C@@H](CC(=O)O)NC(=O)CC[C@H](NC(=O)c3ccc(NCc4cnc5nc(N)nc(O)c5n4)cc3)C(=O)O)C(=O)N[C@H](CC(=O)O)C(=O)N[C@H](CC(=O)O)C(=O)N[C@H](CCCCN)C(=O)O)nn2)C[C@@H](O)[C@@H]1C [FA-10-16R-Aminoratjadone]
Second: C/C=C/[C@@H]1O[C@H]([C@@H](/C=C/C=C(\C)C[C@@H](C)/C=C(C)\C=C\[C@H]2CC=CC(=O)O2)NC(=O)OCc2ccc(NC(=O)[C@H](CCCNC(N)=O)NC(=O)[C@@H](NC(=O)OC[C@@H]3[C@@H]4CCc5nnn(CCC[C@H](NC(=O)[C@@H](CC(=O)O)NC(=O)[C@@H](CC(=O)O)NC(=O)[C@@H](CC(=O)O)NC(=O)CC[C@H](NC(=O)c6ccc(NCc7cnc8nc(N)nc(O)c8n7)cc6)C(=O)O)C(=O)N[C@H](CC(=O)O)C(=O)N[C@H](CC(=O)O)C(=O)N[C@H](CCCCN)C(=O)O)c5CC[C@@H]43)C(C)C)cc2)C[C@@H](O)[C@@H]1C [FA-10-Val-Cit-PABA-16R-Aminoratjadone]
The IC50 of the first is 20-fold higher: 708 nM for the first, 35.3 nM for the second.

`C/C=C/[C@@H]1O[C@H]([C@@H](/C=C/C=C(\C)C[C@@H](C)/C=C(C)\C=C\[C@H]2CC=CC(=O)O2)NC(=O)OCCc2cn(-c3ccc(C(=O)NCCCC[C@H](NC(=O)CC[C@H](NC(=O)CC[C@H](NC(=O)c4ccc(NCc5cnc6nc(N)nc(O)c6n5)cc4)C(=O)O)C(=O)O)C(=O)O)cc3)nn2)C[C@@H](O)[C@@H]1C` [FA-6-16R-Aminoratjadone, (3S,8S,13S)-1-(4-(((2-amino-4-hydroxypteridin-6-yl)methyl)amino)phenyl)-19-(4-(4-(2-((((1R,2E,4E,7R,8Z,10E)-1-((2S,4R,5S,6S)-4-hydroxy-5-methyl-6-((E)-prop-1-en-1-yl)tetrahydro-2H-pyran-2-yl)-5,7,9-trimethyl-1-((R)-6-oxo-3,6-dihydro-2H-pyran-2-yl)undeca-2,4,8,10-tetraen-1-yl)carbamoyl)oxy)ethyl)-1H-1,2,3-triazol-1-yl)phenyl)-1,6,11,19-tetraoxo-2,7,12,18-tetraazanonadecane-3,8,13-tricarboxylic acid] and `C/C=C/[C@@H]1O[C@H]([C@@H](/C=C/C=C(\C)C[C@@H](C)/C=C(C)\C=C\[C@H]2CC=CC(=O)O2)NC(=O)OCCc2cn(-c3ccc(C(=O)NCCCC[C@H](NC(=O)CC[C@H](NC(=O)c4ccc(NCc5cnc6nc(N)nc(O)c6n5)cc4)C(=O)O)C(=O)N[C@H](CCCCN)C(=O)O)cc3)nn2)C[C@@H](O)[C@@H]1C` [FA-8-16R-Aminoratjadone, N^2—((S)-4-(4-(((2-amino-4-hydroxypteridin-6-yl)methyl)amino)benzamido)-4-carboxybutanoyl)-N^6-(4-(4-(2-((((1R,2E,4E,7R,8Z,10E)-1-((2S,4R,5S,6S)-4-hydroxy-5-methyl-6-((E)-prop-1-en-1-yl)tetrahydro-2H-pyran-2-yl)-5,7,9-trimethyl-11-((R)-6-oxo-3,6-dihydro-2H-pyran-2-yl)undeca-2,4,8,10-tetraen-1-yl)carbamoyl)oxy)ethyl)-1H-1,2,3-triazol-1-yl)benzoyl)-L-lysyl-D-lysine] are within 1.5-fold of each other in IC50: 150 nM for the first, 129 nM for the second.

Compared with `C/C=C/[C@@H]1O[C@H]([C@@H](/C=C/C=C(\C)C[C@@H](C)/C=C(C)\C=C\[C@H]2CC=CC(=O)O2)NC(=O)OCc2ccc(NC(=O)[C@H](CCCNC(N)=O)NC(=O)[C@@H](NC(=O)OC[C@@H]3[C@@H]4CCc5nnn(-c6ccc(C(=O)NCCCC[C@H](NC(=O)CC[C@H](NC(=O)CC[C@H](NC(=O)c7ccc(NCc8cnc9nc(N)nc(O)c9n8)cc7)C(=O)O)C(=O)O)C(=O)O)cc6)c5CC[C@@H]43)C(C)C)cc2)C[C@@H](O)[C@@H]1C` [FA-6-Val-Cit-PABA-16R-Aminoratjadone], `C/C=C/[C@@H]1O[C@H]([C@@H](/C=C/C=C(\C)C[C@@H](C)/C=C(C)\C=C\[C@H]2CC=CC(=O)O2)NC(=O)OCCc2cn(CCC[C@H](NC(=O)CC[C@H](NC(=O)c3ccc(NCc4cnc5nc(N)nc(O)c5n4)cc3)C(=O)O)C(=O)N[C@H](CCCCN)C(=O)O)nn2)C[C@@H](O)[C@@H]1C` [FA-9-16R-Aminoratjadone, ((S)-2-((S)-4-(4-(((2-amino-4-hydroxypteridin-6-yl)methyl)amino)benzamido)-4-carboxybutanamido)-5-(4-(2-((((1R,2E,4E,7R,8Z,10E)-1-((2S,4R,5S,6S)-4-hydroxy-5-methyl-6-((E)-prop-1-en-1-yl)tetrahydro-2H-pyran-2-yl)-5,7,9-trimethyl-11-((R)-6-oxo-3,6-dihydro-2H-pyran-2-yl)undeca-2,4,8,10-tetraen-1-yl)carbamoyl)oxy)ethyl)-1H-1,2,3-triazol-1-yl)pentanoyl)-D-lysine] is 4.7-fold lower in IC50: 223 nM for the first, 47.6 nM for the second.

Source: patent US11236059B2, “Targeted cytotoxic ratjadone derivatives and conjugates thereof” (HELMHOLTZ-ZENTRUM FUER INFEKTIONSFORSCHUNG GMBH, priority 2017, dated 2022)
